Measurements from patent publication US8633251B2, “Derivatives of aminoalkanols, method of obtaining of aminoalkanols and their use” (Uniwersytet Jagiellonski, priority 2008, dated 2014).
Read-outs that look alike come from different tables or passages of the source.

Key:
[1] = test system: maximal electroshock seizures; experiment: Maximum Electroshock Seizure (MES) test, mice; assay type: in vivo; conditions: mice; for responders at 100 mg/kg: read-out: MES, No. of protected animals/No. of used animals (converted)
Outline: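 Mice received compound in methylcellulose i.p. or p.o. at 30, 100 and 300 mg/kg, with some tests at 10 and 3 mg/kg. At 0.5 or 4 h, after tetracaine eye-drops, current was delivered through corneal electrodes (60 Hz, 0.2 s, 50 mA). Groups were one mouse at 30 and 300 mg/kg and three at 100 mg/kg.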

neurotoxicity (rotarod) = experiment: Neurotoxicity test (TOX), rotarod, mice; assay type: in vivo; conditions: mice
[2] = test system: pilocarpine induced status epilepticus; experiment: Status epilepticus prevention (pilocarpine), rats; assay type: in vivo, Sprague Dawley albino rat; conditions: i.p.
Experimental: Status epilepticus prevention—an animal (Sprague Dawley albino rat male) is given a dose of tested substance. After 0, 0.25, 0.5, 1, 2, and 4 h pilocarpine is administered. The seizures induced are described by Racine's score. Compounds 27 and 28 were administered i.p. in doses 25 and 45 mg/kg b.w. respectively. […] Average body weight loss is measured 24 h after administration.

[3] = test system: pentylenetetrazol-induced seizures; experiment: Subcutaneous Metrazol Test (ScMet), mice; assay type: in vivo
Experimental: In order to define anticonvulsant activity, screening tests were performed, using animal models of seizures. […] The tests were based on administration of a compound to an animal and after certain time inducing state similar to epilepsy attack in human. Each substance (after dissolving in methylcellulose) was normally tested in doses 30, 100, and 300 mg/kg body weight (b.w.) (mice) or in 30 and 50 mg/kg b.w. (rats) in two possible routes of administration: intraperitoneal (i.p.) or oral (p.o.). Appropriate tests were performed 0.5 and 4 h after administration of the compound. […] (mice) the tests were also performed in doses 10 and 3 mg/kg b.w.
Subcutaneous Metrazol Test (ScMet) is a chemical test, where compounds are tested for activity in absence seizures (petit mal epilepsy). Pentetrazol (metrazol) is considered to block chloride channel in the GABAA receptor complex, therefore at a certain dose in animals it causes myoclonic jerks, next—clonic seizures, and then tonic seizures. The procedure consists in administration of a tested compound and after 0.5 or 4 h subcutaneous administration of pentylenetetrazol in the dose of 85 mg/kg b.w. (mice) or 70 mg/kg b.w. (rats) in a 0.85% solution in 0.9% NaCl. […] Normally the test is performed in single animals.

[4] = dose 100 mg/kg b.w., time 0.5 h
[5] = dose 300 mg/kg b.w., time 0.5 h
[6] = Mus musculus, dose 100 mg/kg b.w., 0.5 h
[7] = Mus musculus, dose 300 mg/kg b.w., 0.5 h, read-out: MES, No. of protected animals/No. of used animals

Compound: Cc1cccc(C)c1OCCNC[C@H](O)c1ccccc1 [Compound 20, R-(−)-2N-[(2,6-dimethylphenoxy)ethyl]amino-1-phenylethanol]
- responders at 30 mg/kg ([1]; Mus musculus, dose 30 mg/kg b.w., time 0.5 h, read-out: MES, No. of protected animals/No. of used animals): 100%
- TOX, No. of animals exhibiting motor impairment/no. of used animals (neurotoxicity (rotarod); [4]): 8/8
- TOX, No. of animals exhibiting motor impairment/no. of used animals (neurotoxicity (rotarod); [5]): 4/4
- melting point: 78 to 80 °C

Compound: CC[C@H](CO)NCCOc1c(C)cccc1Cl [Compound 27, R-(−)-2N-[(2-chlor-6-methylphenoxy)ethyl]amino-1-butanol]
- MES, No. of protected animals/No. of used animals ([1]; dose 30 mg/kg b.w., time 0.5 h): 1/1
- MES, No. of protected animals/No. of used animals [1, 4]: 1/1
- TOX, No. of animals exhibiting motor impairment/no. of used animals (neurotoxicity (rotarod); [4]): 8/8
- TOX, No. of animals exhibiting motor impairment/no. of used animals (neurotoxicity (rotarod); [5]): 4/4
- Average weight loss ± S.E.M. ([2]; body weight loss 24 h after administration, 25 (27) or 45 (28) mg/kg b.w.): 8.3 ± 7.1
- protection in status epilepticus prevention ([2]; 25 (27) and 45 (28) mg/kg b.w.): 2 rats out of 8
- Protection ([2]; rats protected/tested, time 0 h, dose 25 (27) or 45 (28) mg/kg b.w.): 2/8

Compound: Cc1cccc(OCCCNC(C)(C)CO)c1C [Compound 47, 2N-[(2,3-dimethylphenoxy)propyl]amino-2-methyl-1-propanol]
- responders at 100 mg/kg ([1]; Mus musculus, dose 100 mg/kg b.w., time 0.5 h): 100%
- TOX, No. of animals exhibiting motor impairment/no. of used animals (neurotoxicity (rotarod); [4]): 8/8
- TOX, No. of animals exhibiting motor impairment/no. of used animals (neurotoxicity (rotarod); dose 100 mg/kg b.w., time 4 h): 4/4
- TOX, No. of animals exhibiting motor impairment/no. of used animals (neurotoxicity (rotarod); [5]): 4/4
- melting point: 128 to 130 °C

Compound: Cc1cccc(C)c1OCCCNC(C)(C)CO [Compound 53, 2N-[(2,6-dimethylphenoxy)propyl]amino-2-methyl-1-propanol]
- responders at 100 mg/kg [1, 6]: 100%
- TOX, No. of animals exhibiting motor impairment/no. of used animals (neurotoxicity (rotarod); dose 30 mg/kg b.w., 0.5 h): 1/4
- TOX, No. of animals exhibiting motor impairment/no. of used animals (neurotoxicity (rotarod); dose 100 mg/kg b.w., 0.5 h): 8/8
- TOX, No. of animals exhibiting motor impairment/no. of used animals (neurotoxicity (rotarod); dose 300 mg/kg b.w., 0.5 h): 4/4
- melting point: 73 to 75 °C

Compound: Cc1cccc(C)c1OCC(=O)N[C@H]1CC[C@H](O)CC1 [Compound 64, trans-4N-[(2,6-dimethylphenoxy)acetyl]amino-1-cyclohexanol]
- responders at 100 mg/kg [1, 6]: 100%
- responders at 300 mg/kg [1, 7]: 100%
- responders at 300 mg/kg ([3]; Mus musculus, sc, dose 300 mg/kg b.w., 0.5 h, read-out: ScMet, No. of protected animals/No. of used animals): 100%
- TOX, No. of animals exhibiting motor impairment/no. of used animals (neurotoxicity (rotarod); dose 100 mg/kg b.w., 0.5 h): 7/8
- TOX, No. of animals exhibiting motor impairment/no. of used animals (neurotoxicity (rotarod); dose 300 mg/kg b.w., 0.5 h): 4/4
- melting point: 161 to 162 °C

Compound: Cc1cccc(C)c1OCC(=O)N[C@H](C)C(N)=O [Compound 65, D-2N-[(2,6-dimethylphenoxy)acetyl]aminopropionamide]
- responders at 300 mg/kg [1, 7]: 100%
- responders at 30 mg/kg ([3]; Mus musculus, sc, dose 30 mg/kg b.w., 4 h, read-out: ScMet, No. of protected animals/No. of used animals (converted)): 20%
- TOX, No. of animals exhibiting motor impairment/no. of used animals (neurotoxicity (rotarod); dose 100 mg/kg b.w., 0.5 h): 2/8
- TOX, No. of animals exhibiting motor impairment/no. of used animals (neurotoxicity (rotarod); dose 300 mg/kg b.w., 0.5 h): 1/4
- melting point: 177 to 178 °C

Compound: CCC(CO)NC(=O)COc1c(C)cccc1Cl (stereo not shown) [Compound 73, R,S-2N-[(2-chlor-6-methylphenoxy)acetyl]amino-1-butanol]
- MES, No. of protected animals/No. of used animals ([1]; dose 300 mg/kg b.w., 0.5 h): 1/1
- MES, No. of protected animals/No. of used animals ([1]; dose 300 mg/kg b.w., 4 h): 1/1
- ScMet, No. of protected animals/No. of used animals ([3]; dose 100 mg/kg b.w., 0.5 h): 3/5
- ScMet, No. of protected animals/No. of used animals ([3]; dose 300 mg/kg b.w., 0.5 h): 1/1
- TOX, No. of animals exhibiting motor impairment/no. of used animals (neurotoxicity (rotarod); dose 300 mg/kg b.w., 0.5 h): 4/4

Compound: Cc1cc(Cl)ccc1OCC(=O)NCC(C)O (stereo not shown) [Compound 80, R,S-1N-[(4-chlor-2-methylphenoxy)acetyl]amino-2-propanol]
- MES, No. of protected animals/No. of used animals ([1]; dose 300 mg/kg b.w., 0.5 h): 1/1
- ScMet, No. of protected animals/No. of used animals ([3]; dose 300 mg/kg b.w., 0.5 h): 1/1
- TOX, No. of animals exhibiting motor impairment/no. of used animals (neurotoxicity (rotarod); dose 300 mg/kg b.w., 0.5 h): 4/4

Compound: CCC(O)CNC(=O)COc1ccc(Cl)cc1C (stereo not shown) [Compound 81, R,S-1N-[(4-chlor-2-methylphenoxy)acetyl]amino-2-butanol]
- MES, No. of protected animals/No. of used animals ([1]; dose 300 mg/kg b.w., 0.5 h): 1/1
- ScMet, No. of protected animals/No. of used animals ([3]; dose 300 mg/kg b.w., 0.5 h): 1/1
- TOX, No. of animals exhibiting motor impairment/no. of used animals (neurotoxicity (rotarod); dose 300 mg/kg b.w., 0.5 h): 4/4
